Experimental data from patent US20180344637A1, “WATER SOLUBLE MICELLAR DRUG DELIVERY AGENTS” (Wayne State University, priority 2015, published 2018).
≈ marks a conversion by molar mass, not a printed value.

Experiments:
[1] = test system: CD44+ cells (CD44+/CD133+/EpCAM+ CSLCs from MiaPaCa-2); test: MTT assay on CD44+ versus CD44− pancreatic cancer cells; format: cell-based, human; conditions: 72 h
Method: The CSLCs (triple-marker positive; CD44+/CD133+/EpCAM+) and triple-marker negative (CD44−/CD133−/EpCAM−) cells were isolated from human pancreatic MiaPaCa-2 cells, by fluorescence-activated cell sorting (FACS) technique. The postsorted cells were subsequently maintained in 5% FBS-DMEM media at 37° C. under standard culture conditions.
Triple-marker positive (CD44+/CD133+/EpCAM+) CSLCs and triple-marker-negative (CD44−/CD133−/EpCAM−) cells were isolated and cultured as described in above and seeded in a 96-well culture plate, and subsequently free CDF, HA-SMA, nontargeted (SMA-CDF), and targeted (HA-SMA-CDF) nanomicelles were applied 24 h after seeding as a freshly prepared solution in DMSO diluted with PBS (pH 7.4) at between 250 to 750 nM concentration, MTT reagent was added and the absorbance measured at 595 nm using an Ultramultifunctional Microplate Reader ([…], Switzerland), and percent cell viability was determined by comparing the values with appropriate controls.

[2] = test system: CD44; test: Western blot analysis of CD44 expression; format: cell-based, human; conditions: 250 nM, 48 h, triple marker positive CSLCs, versus untreated and HA-SMA controls
Method: Triple marker positive CSLCs derived from MiaPaCa-2 were plated and allowed to attach for 36 h. CDF loaded formulations were directly added to cell cultures at 250 nM concentration and incubated for 48 h. Untreated (control) and HASMA treated (control) cells were incubated in the medium containing an equivalent concentration of PBS. After incubation, the cells were collected in PBS, and whole cell lysate was prepared by suspending the cells in 150 μL of lysis buffer [1 mol/L Tris-HCl (pH 7.5), 150 mmol/L NaCl, 1 mmol/L EDTA, 0.1% Triton X-100, 0.1 mmol/L sodium orthovanadate, 1 mmol/L phenylmethylsulfonyl fluoride ([…]), and 2 μg/mL leupeptin and 2μg,/mL aprotinin] lysed, and centrifuged. The cells were disrupted by sonication (Branson Ultrasonics, Danbury, Conn.), and the total protein content was determined by bicinchoninic acid (BCA) assay. For immunoblotting, 30 μg of total proteins was separated on SDS-PAGE, electro-transferred onto nitrocellulose membranes, and probed with specific antibodies ([…], MA). Detection of specific proteins was carried out with an enhanced chemiluminescence western blotting kit according to the manufacturer's instructions (Life Technologies, Waltham, Mass.).

[3] = test system: MiaPaCa-2 cells; test: MTT assay before and after HA receptor blockade; format: cell-based, human; conditions: MiaPaCa-2, 72 h
Source text: FIG. 13(c) and FIG. 13(d) show comparisons of percent cell viability of different formulations before and after HA receptor blockade.

[4] = test system: AsPC-1 cells; test: In vitro MTT cytotoxicity assay; format: cell-based, human; conditions: 72 h
Method: (§1) Human pancreatic cancer cell lines MiaPaCa-2 and AsPC-1 were used. Both cell lines were maintained in Dulbecco's Modified Eagle's Medium (DMEM; Invitrogen), supplemented with 5% FBS, 2 mmol/L glutamine, 50 units/mL penicillin, and 50 μg/mL streptomycin under standard culture conditions. The cell lines have been tested and authenticated in the core facility of Applied Genomics Technology Center at Wayne State University. The method used for testing was short tandem repeat profiling using the PowerPlex 16 System from Promega.
(§2) The in vitro cytotoxicity of free CDF, CUR, SMA and micelles was evaluated by MTT cytotoxicity assay based on measurement of the activity of enzymes present in live cells that reduces MTT to give a purple color. Cells were seeded in a 96-well culture plate and the formulations were applied 24 h after seeding as freshly prepared solutions in PBS (pH 7.4) using between 100 to 1000 nM concentrations of the test agents. MTT (0.5 mg/ml) was added at the end of treatment (72 h) and plates incubated at 37° C. for 2 h, followed by replacement of media with DMSO at room temperature for 30 min and absorbance were measured at 590 nm using Ultra Multi-functional Micro plate Reader (TECAN).

[5] = test system: MiaPaCa-2 cells; test: In vitro MTT cytotoxicity assay; format: cell-based, human; conditions: 72 h
Method: as §1, §2

[6] = cited from earlier work

Row | IC50 [1] | IC50 ([3]; after receptor blockade using free soluble HA) | IC50 ([3]; before the blockade of HA receptors) | SMILES | expression of CD44 levels (in words) [2] | IC50 [4] | cell viability ([5]; 1000 nM CDF equivalent concentration, MiaPaCa-2) | anticancer activity compared to free CMN (in words) ([5]; MTT) | IC50 ([5]; MiaPaCa-2 cells) | water solubility ([6]; free form) | water solubility (estimated) [6]
1 | 410 ± 3.64 nM | 473 ± 8.69 nM | 465 ± 7.34 nM | COc1cc(/C=C/C(=O)C(=Cc2ccc(F)c(F)c2)C(=O)/C=C/c2ccc(O)c(OC)c2)ccc1O [CDF, curcumin difluorinated] | marked reduction | 810 ± 1.51 nM | 28.47±2.29% | significantly improved anticancer activity | 400 ± 4.53 nM | 0.6 µg/mL (≈ 1.22 µM) | 
2 |  |  |  | CC(=O)O[C@@]12CO[C@@H]1C[C@H](O)[C@@]1(C)C(=O)[C@H](O)C3=C(C)[C@@H](OC(=O)[C@H](O)[C@@H](NC(=O)OC(C)(C)C)c4ccccc4)C[C@@](O)([C@@H](OC(=O)c4ccccc4)[C@H]21)C3(C)C [Docetaxel, docetaxel] |  |  |  |  |  |  | 10 to 20 µM
3 |  |  |  | CC(=O)O[C@H]1C(=O)[C@@]2(C)[C@H]([C@H](OC(=O)c3ccccc3)[C@]3(O)C[C@H](OC(=O)[C@H](O)[C@@H](NC(=O)c4ccccc4)c4ccccc4)C(C)=C1C3(C)C)[C@]1(OC(C)=O)CO[C@@H]1C[C@@H]2O [Paclitaxel, paclitaxel] |  |  |  |  |  |  | 10 to 20 µM
